From US6380248B1, “Metal-thiols as immunomodulating agents” (Winthrop University Hospital, priority 1998, dated 2002)
Where two headings read alike, the source gives them in different places.

Legend:
[1] = system: bacteria; assay: Antibacterial activity of bismuth-thiols; type: cell-based; details: for antibacterial / antimicrobial activity in words: comparison between bismuth-thiols
[2] = system: macrophages/monocytes from CLP mice; type: in vivo
[3] = system: TGFβ1; assay: Serum cytokine levels in CLP mice treated with BisEDT; type: in vivo; details: BisEDT 1:2 (Bismuth 20 μg/kg BW) tail vein 5 h after CLP, sacrificed 18 h after injection
[4] = system: mice; assay: Toxicity / lethality to mice; details: mouse, in vivo
[5] = system: mice; details: according to MSDS sheets from Aldrich Chemical Company; cited from earlier work
[6] = system: pro- and anti-inflammatory cytokines; assay: Polymicrobial sepsis induced up-regulation of cytokines in mice; details: mouse, in vivo
[7] = system: IL-10; assay: Serum cytokine levels in CLP mice treated with BisEDT; type: in vivo; details: BisEDT 1:2 (Bismuth 20 μg/kg BW) tail vein 5 h after CLP, sacrificed 18 h after injection
[8] = Stability of the bismuth-thiol compound; type: physicochemical; details: compared to bismuth:dimercaprol
[9] = system: CLP mice (sepsis induced by cecal ligation and perforation); assay: Survival of septic mice (cecal ligation and perforation, CLP) treated with BisEDT; type: in vivo
Experimental: In the absence of any treatment, mortality rate is greater than 90% within 18-72 hours.
The object was to determine if Bismuth-ethanedithiol (BisEDT) in a molar ratio of 1:2, would protect CLP mice. Mortality rate of greater than 90% is observed within 18-72 hours in this model. A dose response study was performed to determine an optimal dose of BisEDT. […] Data were analyzed using Chi-Square and Krumkal Walkis tests. The data are presented below as average ±SEM. Data compared to control (dose 0) were considered significant (*) at p<0.05.

[10] = system: IL-1α; assay: Serum cytokine levels in CLP mice treated with BisEDT; type: in vivo; details: BisEDT 1:2 (Bismuth 20 μg/kg BW) tail vein 5 h after CLP, sacrificed 18 h after injection
[11] = system: IL-10; type: in vivo, mice
[12] = system: TNFα; assay: Serum cytokine levels in CLP mice treated with BisEDT; type: in vivo; details: BisEDT 1:2 (Bismuth 20 μg/kg BW) tail vein 5 h after CLP, sacrificed 18 h after injection, * p<0.05
[13] = repeat study, Injection Once a Day, dose 2 ug/kg BW, * p<0.05
[14] = repeat study, Injection Once a Day, dose 200 ug/kg BW
[15] = repeat study, Injection Twice a Day, dose 2 ug/kg BW, * p<0.05
[16] = repeat study, Injection Twice a Day, dose 200 ug/kg BW

Compound: CC(O)C(C)S (centres unmarked) [3-mercapto-2-butanol]
- amount of thiol required relative to dimercaprol to achieve similar inhibitory activity ([1]; in combination with bismuth): Approximately 3 times

Compound: SCCCCS.[Bi] [Bismuth-1,4-butanedithiol]
- less antibacterial activity (compared with vicinal dithiols Bismuth-2,3-BDT / bismuth:ethanedithiol) [1]: ~100 fold

Compound: O=S(=O)(O)CC(S)CS (centres unmarked) [dimercaptopropane-1-sulfonic acid, reference compound]
- antibacterial synergy of the thiol with bismuth [1]: did not show antibacterial synergy

Compound: Bismuth-2,3-BDT (2,3-butanedithiol)
- antibacterial / antimicrobial activity in words [1]: as good as bismuth:ethanedithiol

Compound: Bismuth-ethanedithiol [BisEDT]
- amounts of superoxide, H2O2 and NO2- produced by macrophages/monocytes, unstimulated ([2]; from BisEDT-treated CLP mice (Bismuth 20 μg/kg BW), without in vitro stimulation): in between that produced by the control and untreated CLP mice but not significantly different from either of these groups
- release of superoxide, H2O2 and NO2- by macrophages/monocytes, stimulated ([2]; mouse, in vivo): significantly increased
- Serum TGFβ1 level [3]: 24.8 ± 3.6 pg/mL
- toxicity compared to bismuth:dimercaprol [4]: no more toxic
- lethality to mice [5]: very similar to that of dimercaprol
- antibacterial / antimicrobial activity in words [1]: stronger antimicrobial agent than bismuth:dimercaprol
- prevention of sepsis induced up-regulation of pro- and anti-inflammatory cytokines [6]: able to prevent the polymicrobial sepsis induced up-regulation of both pro- and anti-inflammatory cytokines
- Serum IL-10 level [7]: 165 ± 69 pg/mL
- stability [8]: more stable compound at all molar ratios and pHs
- Survival ([9]; dose 2 ug/kg BW via tail vein once a day for three days, observed 8 days, average ±SEM, dose response study): 64 ± 43 h
- Survival (%) ([9]; dose 2 ug/kg BW via tail vein once a day for three days, observed 8 days, dose response study): 20%
- Survival (hrs.) ([9]; dose 20 ug/kg BW via tail vein once a day for three days, average ±SEM, dose response study, * p<0.05 vs dose 0): 110 ± 35* hrs.
- Survival (%) ([9]; dose 20 ug/kg BW via tail vein once a day for three days, dose response study, * p<0.05 vs dose 0): 60* %
- Survival ([9]; dose 200 ug/kg BW via tail vein once a day for three days, average ±SEM, dose response study): 75 ± 21 h
- Survival (%) ([9]; dose 200 ug/kg BW via tail vein once a day for three days, dose response study): 40%
- Survival ([9]; dose 2000 ug/kg BW via tail vein once a day for three days, average ±SEM, dose response study): 48 ± 24 h
- Survival (%) ([9]; dose 2000 ug/kg BW via tail vein once a day for three days, dose response study): 20%
- effect on survival ([9]; dose of 20 μg/kg body weight): significantly increase survival
- effect of increase in dose frequency on survival ([9]; once daily to twice daily, P=0.73): did not increase survival
- Survival (%) [9, 13]: 56* %
- Survival (hrs.) [9, 13]: 109 ± 29* hrs.
- Survival [9, 14]: 75 ± 21 h
- Survival (%) [9, 14]: 40%
- Survival (%) [9, 15]: 44* %
- Survival (hrs.) [9, 15]: 103 ± 29* hrs.
- Survival [9, 16]: 97 ± 40 h
- Survival (%) [9, 16]: 40%
- percentage survival, overall ([9]; treatment group versus 0% (control), summary of Example 1): 60%
- survivability, overall ([9]; with treatment versus approximately 36 hours without treatment, summary of Example 1): 108 h
- Serum IL-1α level [10]: 10.5 ± 1.1 pg/mL
- IL-10 production in vitro by splenic macrophages ([11]; from CLP mice treated with BisEDT, unstimulated): do not produce IL-10 in vitro as much as the macrophages from BisEDT untreated CLP animals
- IL-10 release by splenic macrophages, stimulated ([11]; mouse, in vivo): did not significantly up-regulate the IL-10 release
- Serum TNFα level [12]: 13.7 ± 2.9* pg/ml

Compound: Bismuth:propanedithiol (1,3-propanedithiol)
- antibacterial / antimicrobial activity in words [1]: works quite well, but not as well as the vicinal dithiols

Compound: bismuth:2-mercaptoethylamine
- decrease in activity compared with bismuth:β-mercaptoethanol ([1]; antibacterial activity): 5 fold

Compound: dimercapto-succinic acid [reference compound]
- antibacterial synergy of the thiol with bismuth [1]: largely abolished synergy with bismuth
- antibacterial synergy of the thiol with bismuth ([1]; listed as DMSA): did not show antibacterial synergy
